Data from article PMC11836371, “Virtual fragment screening for DNA repair inhibitors in vast chemical space” (Nature Communications, 2025).
pIC50: −log10 of the molar value. “And” between values parts separate entries of the source, which are not always exact repeats. Equal values may be shown once. Read-outs that look alike come from different tables or passages of the source.

Assays:
human OGG1 enzyme [1] = biological target: T1, human OGG1 enzyme (Homo sapiens, UniProt O15527); assay: Differential scanning fluorimetry (DSF) thermal shift assay; type: binding; parameters: ∆Tm (K): unit of the concentration uncertain
Procedure: The temperature was increased from 20 °C to 85 °C with 10 readings/degree. Tm values were calculated using an excel template and fitting to the Boltzmann equation in Prism v.6.07 (GraphPad Software).

human OGG1 enzyme [2] = biological target: T1, human OGG1 enzyme; assay: OGG1 glycosylase activity assay (enzyme inhibition, APE1-coupled fluorescence); type: biochemical

T1 sequence (O15527 whole entry): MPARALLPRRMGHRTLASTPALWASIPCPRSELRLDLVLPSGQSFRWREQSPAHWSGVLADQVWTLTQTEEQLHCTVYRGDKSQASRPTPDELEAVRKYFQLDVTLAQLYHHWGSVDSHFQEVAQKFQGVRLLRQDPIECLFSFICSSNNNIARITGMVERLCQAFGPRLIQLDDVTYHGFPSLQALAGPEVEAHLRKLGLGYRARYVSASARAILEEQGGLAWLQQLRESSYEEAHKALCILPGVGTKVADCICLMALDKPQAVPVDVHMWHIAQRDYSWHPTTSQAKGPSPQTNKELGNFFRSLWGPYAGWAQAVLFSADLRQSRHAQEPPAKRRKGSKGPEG

SMILES	∆Tm (K) (human OGG1 enzyme [1]; 495 µM)	∆Tm (K) (human OGG1 enzyme [1]; 99 μM)	also measured
Cc1nocc1NC(=O)Nc1ccnn1C(C)C [ZINC000866108350]	-0.03 K	–	–
O=C(NCc1ccn(-c2ccccc2)n1)c1cc(-c2ccccc2)no1 [ZINC000617287579]	–	-0.19 K	–
O=C(Cc1c(F)cccc1F)Nc1noc2c1CCCC2 [compound 6]	–	1.1 ± 0.5 K	∆Tm (K) (human OGG1 enzyme [1]; 99 (unit uncertain) as printed in sheet footnote): 1.1 ± 0.5 K; IC50 (human OGG1 enzyme [2]; Table 1, mean ± SD, at least three independent replicates, read-out: pIC50 (converted)): 36.3 µM
O=C(NC1CN(C(=O)c2ccc(Cl)s2)C1)c1ccc(Cl)o1 [ZINC000357905855]	–	0.23 K	–
COc1ccc2[nH]cc(CC(=O)Nc3nnc4cc(C)ccn34)c2c1 [ZINC000520908378]	–	-0.38 K	–
Cc1ccccc1CNC(=O)Nc1cnnn1C [ZINC000787791820]	-0.02 K	–	–
O=C(NCc1ccc2oc(=O)[nH]c2c1)c1cc(C2CC2)on1 [ZINC000025095824]	–	0.10 K and 0.1 K	–
Cc1conc1NC(=O)c1csc2cncn12 [ZINC000772563154]	0.52 K	–	–
Cn1ncc(NC(=O)N[C]2COc3ccc(Cl)cc32)c1C(F)F [ZINC000337657385]	–	-0.16 K	–
CCc1ccc(CC(=O)Nc2nnc(C3CC3)n2C)cc1 [ZINC000157183023]	–	Inactivea	–
CCC(C)(O)C(=O)Nc1nnc2n1CCCC2 (stereo not drawn) [ZINC000935297684]	-0.15 K	–	–
Cc1cc(NC(=O)c2coc(C3CC3)n2)cs1 [ZINC000634423932]	-0.08 K	–	–
Cn1nc(Nc2ncnc3cc(F)c(F)cc23)cc1C1CC1 [ZINC000439491208]	–	-0.04 K	–
C[C]C(=O)Nc1nnc2ccccn12 [ZINC000613462643]	–	0.05 K	–
Cc1cnc(Nc2ncnc3ccccc23)s1 [ZINC000031949200]	-0.03 K	–	–
C[C](CNC(=O)c1cn2c(n1)CCC2)Oc1ccc(Cl)cc1 [ZINC000047544921]	–	0.05 K	–
O=C(Nc1noc2c1CCCC2)C1CC12CCC2 (stereo not drawn) [compound 1]	–	–	∆Tm (K) (human OGG1 enzyme [1]; 495 (unit uncertain) as printed in sheet footnote): 2.8 K; ΔTm (human OGG1 enzyme [1]; concentration not given): 2.8 K; OGG1 inhibition, dose-response (Figure2C) (human OGG1 enzyme [2]; Concentration (M) 9.67e-7): 3.85 and 6.91; OGG1 inhibition, dose-response (Figure2C) (human OGG1 enzyme [2]; Concentration (M) 0.000248): 16.25 and 9.26; OGG1 inhibition, dose-response (Figure2C) (human OGG1 enzyme [2]; Concentration (M) 0.000495): 25.93 and 22.47; inhibition at 99 µM (human OGG1 enzyme [2]; at 99 μM, read-out: percent inhibition of OGG1): < 50%; IC50 (human OGG1 enzyme [2]; listed as Fragment 1): too weak to determine an IC50 value; pIC50 (human OGG1 enzyme [2]; read-out: IC50): < 4.00

SMILES	∆Tm (K) (human OGG1 enzyme [1]; 495 µM)	∆Tm (K) (human OGG1 enzyme [1]; 99 μM)	also measured
Cc1ccc(NC(=O)N2CC(O)(c3ccc(Cl)cc3)C2)s1 [ZINC000633809751]	–	0.48 K	–
O=C(Cn1c(C(F)(F)F)nc2ccccc21)NCc1ccccc1 [ZINC000032814728]	–	0.79 K	–
C[C](CCc1ccccc1)C(=O)N1CC(c2ccccc2)C1 [ZINC000342133714]	–	0.08 K	–
O=S(=O)(Nc1ccc(Cl)cc1F)N1CCc2ccccc2C1 [ZINC000990255105]	–	-0.03 K	–
Cn1ncc2c(Nc3cccc(-c4cccs4)c3)ncnc21 [ZINC000445022399]	–	-0.23 K	–
CC(C)(NC(=O)NCc1ccco1)c1ccc(Br)cc1 [ZINC000088254610]	–	0.27 K	–
COCc1csc(NCc2ccccc2)n1 [ZINC000196610182]	-0.06 K	–	–
c1cnc2ccc(CNc3nnc4ccccn34)cc2c1 [ZINC000155922887]	–	inactivea	–
O=C(NCC1(O)CCC1)c1nc(Cl)cs1 [ZINC000789956517]	0.07 K	–	–
O=C(NCC1(O)CN(C(=O)c2cccnn2)C1)c1ccc(Cl)cc1 [ZINC000584413720]	–	0.65 K	–
Cn1ccnc1NC(=O)c1nc(Cl)cs1 [ZINC000851710058]	-0.05 K	–	–
CCN(Cc1ccccc1)S(=O)(=O)NC1Cc2ccccc2C1 [ZINC001146929060]	–	0.00 K and 0 K	–
Cc1cc(=O)c(C(=O)NC2(C)CC2(C)C)c[nH]1 (stereo not drawn) [ZINC000620078540]	0.03 K	–	–
Cc1cccc2nc(C(=O)NCc3ccc(Br)o3)cn12 [ZINC000677630607]	–	-0.08 K	–
COc1ccc([C]2CCCCCN2C(=O)Nc2noc(C)c2C)cc1 [ZINC000455661485]	–	-0.14 K	–
Cc1cscc1NC(=O)NCc1cccc(-n2cncn2)c1 [ZINC001624168456]	–	0.15 K	–
